Assay results reported in patent US12233086B2, “Biomarkers for neurogenerative disease” (Neuvivo, Inc., priority 2022, dated 2025).
Where “and” joins values, the source holds several entries; their conditions need not be identical. Equal entries are not always repeated. Where two headings read alike, the source gives them in different places.

Tests used:
ALS patients [1] = conditions: plasma CRP greater than 1.13 mg/L; rates of ALSFRS-R and vital capacity decline; cited from earlier work
CD16 = conditions: phase 1 dose ascending study in ALS patients; cited from earlier work
LBP = test system: LBP
Excerpt: (§1) Description of ALS Phase 2A trial and participants: Participants received a total of infusions administered intravenously over 6 cycles during a 25-week double-blind treatment period. There were 4 weeks between the start of each cycle. Cycle 1 consisted of 5 consecutive daily infusions. Cycles 2, 3, 4, 5, and 6 each consisted of 3 consecutive daily infusions. Plasma specimens for biomarker analysis were obtained at the beginning and end of study.
(§2) Source of patient specimens: The plasma specimens had been stored at −80° C. since the trial ended and were all evaluated for biomarker levels.

EGF = test system: EGF
Excerpt: as §1, §2

LPS = test system: LPS
Excerpt: as §1, §2

sCD163 = test system: sCD163
Excerpt: as §1, §2

HGF = test system: HGF
Excerpt: as §1, §2

Neopterin = test system: Neopterin
Excerpt: as §1, §2

IL-18 = test system: IL-18
Excerpt: as §1, §2

IL-10 = test system: IL-10
Excerpt: as §1, §2

ALS patients [2] = conditions: for decline in VC over 6 months vs placebo (words): CRP>1.13 mg/L
Method: (§3) Participants received a total of 20 infusions administered intravenously monthly over 6 cycles during a 6-month double-blind treatment period. […] The start of each cycle was separated by four weeks. Cycle 1 consisted of 30 min infusions over 5 consecutive days. Cycles 2, 3, 4, 5, and 6 each consisted of 3 consecutive daily infusions. ALSFRS-R and vital capacity measurements were performed monthly. The average rate of ALS disease progression (Average DP Rate) at baseline was defined as ALSFRS-R score change per month [(48−ALSFRS-R score at baseline)/months since ALS symptom onset from baseline]]. […] Plasma specimens for biomarker analysis were obtained at the beginning and end of the study (month 6, one month after last dose). All patients had to have completed the study to provide end of study plasma. The units expressed in this Example are hs-CRP units, abbreviated as CRP.
The clinical outcome data evaluated for the current study were the forced vital capacity measurements performed on all patients at baseline and every month until the end of study. Using the patient's age and height with the actual respiratory volume measured, the % predicted vital capacity (VC) was calculated as described.

ALS patients [3] = test system: ALS patients
LPS:EGF = conditions: ratio increased over time in placebo
IL-6 = conditions: age 40-65, CRP>1.13 mg/L
Method: as §2

TNF-a = conditions: age 40-65, CRP>1.13 mg/L
Method: as §2

IL-8 = conditions: age 40-65, CRP>1.13 mg/L
Method: as §2

NfL = conditions: 6 months; p=0.09
TGFB1 = conditions: age≤65, baseline CRP>1.13 mg/L; p=0.02 for month 6
Method: as §3

[4] = NP001 2 mg/kg, N 14, age 40-65, CRP>1.13 mg/L, six months
[5] = CRP>1.13 mg/L, aged 40-65, Wilcoxon p 0.04
[6] = CRP>1.13 mg/L, listed as sodium chlorite
[7] = CRP>1.13 mg/L, aged 40-65, Wilcoxon p 0.02
[8] = NP001 2 mg/kg, N 59, age≤65, CRP>1.13 mg/L
[9] = NP001 2 mg/kg, N 64, age≤65, CRP>1.13 mg/L
[10] = NP001 2 mg/kg, N 68, age≤65, CRP>1.13 mg/L
[11] = NP001 2 mg/kg, N 69, age≤65, CRP>1.13 mg/L
[12] = NP001 2 mg/kg, N 72, age≤65, CRP>1.13 mg/L
[13] = NP001 2 mg/kg, N 74, age≤65, CRP>1.13 mg/L

sodium chlorite [NP001]
disease progression vs placebo, post hoc evaluation of phase 2 studies (ALS patients [1]): slowed disease progression | monocyte activation marker CD16 (CD16): dose dependent down regulation | plasma LBP change relative to placebo over 6 months (LBP; CRP>1.13 mg/L): decreased | LBP: % difference between NP001-treated and placebo at 6 months (% median change from baseline) (LBP; CRP>1.13 mg/L, aged 40-65, Wilcoxon p 0.006): −25.9% | % LBP change from baseline, Mean (LBP; [4]): −1.6% | % LBP change from baseline, Median (LBP; [4]): −5.4% | plasma EGF change relative to placebo over 6 months (EGF; CRP>1.13 mg/L): increased | EGF: % difference between NP001-treated and placebo at 6 months (% median change from baseline) (EGF; [5]): 32.4% | % EGF change from baseline, Mean (EGF; [4]): 64.3% | % EGF change from baseline, Median (EGF; [4]): 6.5% | LPS: % difference between NP001-treated and placebo at 6 months (% median change from baseline) (LPS; [5]): −51.8% | plasma LPS change relative to placebo over 6 months (words) (LPS; [6]): decreased | % LPS change from baseline, Mean (LPS; [4]): −22.0% | % LPS change from baseline, Median (LPS; [4]): −30.4% | plasma sCD163 change relative to placebo over 6 months (sCD163; CRP>1.13 mg/L): decreased | sCD163: % difference between NP001-treated and placebo at 6 months (% median change from baseline) (sCD163; [7]): −19.6% | % CD163 change from baseline, Mean (sCD163; [4]): −3.5% | % CD163 change from baseline, Median (sCD163; [4]): −5.9% | plasma HGF change relative to placebo over 6 months (HGF; CRP>1.13 mg/L): decreased | HGF: % difference between NP001-treated and placebo at 6 months (% median change from baseline) (HGF; [7]): −31.4% | % HGF change from baseline, Mean (HGF; [4]): −7.6% | % HGF change from baseline, Median (HGF; [4]): −14.3% | plasma neopterin change relative to placebo over 6 months (Neopterin; CRP>1.13 mg/L): increased | Neopterin: % difference between NP001-treated and placebo at 6 months (% median change from baseline) (Neopterin; [5]): 18.1% | % Neopterin change from baseline, Mean (Neopterin; [4]): 13.9% | % Neopterin change from baseline, Median (Neopterin; [4]): 10.8% | IL-18: % difference between NP001-treated and placebo at 6 months (% median change from baseline) (IL-18; [7]): −58.3% | plasma IL-18 change relative to placebo over 6 months (words) (IL-18; [6]): decreased | % IL-18 change from baseline, Mean (IL-18; [4]): 25.8% | % IL-18 change from baseline, Median (IL-18; [4]): −2.1% | plasma IL-10 change relative to placebo over 6 months (IL-10; CRP>1.13 mg/L): increased | IL-10: % difference between NP001-treated and placebo at 6 months (% median change from baseline) (IL-10; [7]): 18.6% | % IL-10 change from baseline, Mean (IL-10; [4]): 38.8% | % IL-10 change from baseline, Median (IL-10; [4]): 0.0% | average VC lost per month (ALS patients [2]; 2 mg/kg, age≤65, CRP>1.13 mg/L, placebos 2.1%): 0.75 % VC per month | decline in VC over 6 months vs placebo (words) (ALS patients [2]): improved | decline in VC over 6 months vs placebo (words) (ALS patients [2]; listed as sodium chlorite): significantly slowed | % VC change from baseline, Month 6, Mean (ALS patients [2]; [8]): Mean: −9.1% | % VC change from baseline, Month 6, Median (ALS patients [2]; [8]): Median: −5.4% | % VC change from baseline, Month 5, Mean (ALS patients [2]; [9]): Mean: −9.4% | % VC change from baseline, Month 5, Median (ALS patients [2]; [9]): Median: −6.4% | % VC change from baseline, Month 4, Mean (ALS patients [2]; [10]): Mean: −8.1% | % VC change from baseline, Month 4, Median (ALS patients [2]; [10]): Median: −5.4% | % VC change from baseline, Month 3, Mean (ALS patients [2]; [11]): Mean: −6.5% | % VC change from baseline, Month 3, Median (ALS patients [2]; [11]): Median: −3.8% | % VC change from baseline, Month 2, Mean (ALS patients [2]; [12]): Mean: −4.6% | % VC change from baseline, Month 2, Median (ALS patients [2]; [12]): Median: −2.6% | % VC change from baseline, Month 1, Mean (ALS patients [2]; [13]): Mean: −2.5% | % VC change from baseline, Month 1, Median (ALS patients [2]; [13]): Median: −0.9% | mean % VC change from baseline by the end of study, low CRP group (ALS patients [2]; age≤65, CRP<1.13 mg/L, Placebo −13.5%, p=0.83): −16.4% | slower rate of VC loss compared to placebo (ALS patients [2]; age≤65, CRP>1.13 mg/L, end of six-month study, p=0.05): > 64% and 64% | ALSFRS-R score lost over six months (ALS patients [3]; 2 mg/kg, CRP>1.13 mg/L, age 40-65, placebos lost 4.6 units (p=0.03)): 1.2 units | proportion of non-progressors (no decrease in ALSFRS-R score at 6 months) (ALS patients [3]; 2 mg/kg, age 40-65, CRP>1.13 mg/L, placebo 2 out of 17): 6 out of 15 | decline in ALSFRS-R over 6 months vs placebo (words) (ALS patients [3]; CRP>1.13 mg/L): highly significant difference | non-progression rate (no decrease in ALSFRS-R score at 6 months) (ALS patients [3]; CRP>1.13 mg/L, age 40-65, placebos less than 10% (p=0.08)): 35% | decline in ALSFRS-R over 6 months vs placebo (words) (ALS patients [3]; [6]): significantly slowed | relationship between drug dose and change in ALSFRS-R score over six months (ALS patients [3]; plasma CRP above the median value (1.13 mg/L)): dose responsive relationship | clinical activity in all ALS patients of the phase 2A study (ALS patients [3]; symptom onset within the past three years, no CRP or age cutoff): did not show significant clinical activity | ratio of LPS to EGF, trend over time (LPS:EGF): decreased over time | plasma IL-6 values over the six-month study (IL-6): within the normal range and did not change | plasma TNF-a values over the six-month study (TNF-a): within the normal range and did not change | plasma IL-8 values over the six-month study (IL-8): within the normal range and did not change | plasma NfL in treated non-progressors compared to progressors (NfL): trend towards a loss of plasma NfL | plasma TGFB1 levels over the 6-month trial vs placebo (TGFB1): significantly increased
